# Reference: patent publication EP3782622A1, “ADENOSINE A2B RECEPTOR AGONIST FOR THE TREATMENT OF MUSCU[…]” (Rheinische Friedrich-Wilhelms-Universität Bonn, priority 2019, dated 2021)
# Experiments:
# [1] = test system: Satellitenzellen; assay: Isolation and amount of satellite cells from treated old mice; type: in vivo, Mäuse; conditions: 1 mg/kg once daily for four weeks
# Excerpt: WT männliche C57BL/6 Mäuse wurden von Janvier gekauft. A2B-/- Mäuse wurden von M. Idzko, Freiburg, Deutschland, zur Verfügung gestellt. ATA2B-KO (A2Bfloxed/floxed;AdipoCre+) und Con-A2B (A2Bfloxed/floxed;AdipoCre-) Mäuse wurden durch Züchtung von A2Bfloxed/floxed Mäusen (erzeugt von Holger K. Eltzschig) mit Adiponectin-Cre (Jackson Laboratories) Mäusen zur Herstellung von A2Bfloxed;AdipoCre+ heterozygoten Mäusen erzeugt. Heterozygote Mäuse wurden mit A2Bfloxed/floxed gezüchtet. Männliche Wurfgeschwister wurden zufällig experimentellen Gruppen zugeordnet. Halbfettdiät (HFD, 60% Energie aus Fett) und Kontrolldiät wurden von ssniff Spezialdiäten GmbH (Soest, DE) gekauft. Mäuse wurden in einem täglichen Zyklus von 12 Stunden Licht (0600 bis 1800) und 12 Stunden Dunkelheit (1800 bis 0600) bei 23 ± 1°C gehalten und erhielten freien Zugang zu Futter und Wasser. Für die Muskelanalyse/Sarkopenie wurden Mäusen vier Wochen lang einmal täglich intraperitoneal mit 1 mg/kg 2-({6-Amino-3,5-dicyano-4-[4-(cyclopropylmethoxy)-phenyl]-pyridin-2-yl}sulfanyl)-acetamid (Bay 60-6583) injiziert. […]
# [2] = test system: primäre humane Skelettmuskelzellen; assay: Glucose uptake test (abcam kit ab136956); type: cell-based; conditions: primary human skeletal muscle cells, Abbildung 5
# Excerpt: Die Glukoseaufnahme wurde mit murinen und humanen SKM-Zellen unter Verwendung des Glukoseaufnahmekits von abcam (ab136956) (abcam plc., Cambridge, UK) nach Herstellerangaben gemessen.
# [3] = test system: primären humanen Skelettmuskelzellen; assay: Endogenous respiration (Oxygraph 2K): oxygen consumption of primary human skeletal muscle cells; type: cell-based
# Protocol: (§1) Skelettmuskelzellen oder -gewebe wurden 15 Minuten vor den […] Messungen wie angegeben behandelt (Oxygraph 2K; Oroboros Instruments). Die Proben wurden in die Oxygraphenkammer mit 2 ml Inkubationsmedium (0,5 mM Ethylenglycol-bis(aminoethylether)-N,N,N',N'-tetraessigsäure (EGTA), 3 mM MgCl2 · 6 H2O, 60 mM K-Lactobionat, 20 mM Taurin, 10 mM KH2PO4, 20 mM 2-(4-(2-Hydroxyethyl)-1-piperazinyl)-ethansulfonsäure (HEPES), 110 mM Saccharose und 1 g/l Bovines Serumalbumin (BSA), pH 7,1) gebracht. In vitro-Atmungswerte wurden bei Erreichen eines stationären Zustandes aufgezeichnet, gefolgt von der Zugabe von Substraten (Zustand 1: endogen; Zustand 2: Adenosindiphosphat (ADP); Zustand 3: Succinat; Zustand 4: Oligomycin; entkoppelt: 2,4-dinitrophenol, carbonylcyanide p-trifluoromethoxyphenyl-hydrazine (FCCP)). Die Atmungsraten wurden auf den Gesamtproteingehalt normalisiert.
# [4] = test system: Mäusen; assay: Muscle strength of mice after treatment; type: in vivo, Mäuse; conditions: Abbildung 8; for Muskelkraft: mice
# Excerpt: (§2) WT männliche C57BL/6 Mäuse wurden von Janvier gekauft. A2B-/- Mäuse wurden von M. Idzko, Freiburg, Deutschland, zur Verfügung gestellt. ATA2B-KO (A2Bfloxed/floxed;AdipoCre+) und Con-A2B (A2Bfloxed/floxed;AdipoCre-) Mäuse wurden durch Züchtung von A2Bfloxed/floxed Mäusen (erzeugt von Holger K. Eltzschig) mit Adiponectin-Cre (Jackson Laboratories) Mäusen zur Herstellung von A2Bfloxed;AdipoCre+ heterozygoten Mäusen erzeugt. Heterozygote Mäuse wurden mit A2Bfloxed/floxed gezüchtet. Männliche Wurfgeschwister wurden zufällig experimentellen Gruppen zugeordnet. Halbfettdiät (HFD, 60% Energie aus Fett) und Kontrolldiät wurden von ssniff Spezialdiäten GmbH (Soest, DE) gekauft. Mäuse wurden in einem täglichen Zyklus von 12 Stunden Licht (0600 bis 1800) und 12 Stunden Dunkelheit (1800 bis 0600) bei 23 ± 1°C gehalten und erhielten freien Zugang zu Futter und Wasser. Für die Muskelanalyse/Sarkopenie wurden Mäusen vier Wochen lang einmal täglich intraperitoneal mit 1 mg/kg 2-({6-Amino-3,5-dicyano-4-[4-(cyclopropylmethoxy)-phenyl]-pyridin-2-yl}sulfanyl)-acetamid (Bay 60-6583) injiziert.
# Extensor digitorum longus (EDL) Muskeln aus den Hinterbeinen von Mäusen wurden von Sehne zu Sehne isoliert, in eine wässrige Pufferlösung aus Krebs-Puffer (118 mM NaCl, 3,4 mM KCl, 0,8 mM MgSO4, 1,2 mM KH2PO4, 11,1 mM Glukose, 25 mM NaHCO3, 2,5 mM CaCl2) getaucht und bei Raumtemperatur mit Carbogen (ein Gasgemisch aus 5 Volumenteilen Kohlenstoffdioxid (CO2) und 95 Volumenteilen Sauerstoff (O2)) umspült. Die Muskeln wurden zwischen der Klemme eines Hebelarms und dem Haken eines Kraftaufnehmers eines Myographen (SI Instruments) ausgerichtet. Dann wurden die Muskeln gedehnt, bis ein einzelner Impuls während einer Zuckungsstimulation die maximale Kraft hervorrief. Es wurden Zuckungsstimulationen (2 V, 1 ms) für […] aufgezeichnet und die Kraft gemessen. Die gesamte Muskelquerschnittsfläche wurde geschätzt, indem die Muskelmasse durch das Produkt aus der Muskellänge, dem Verhältnis von […] (0,44 bei EDL) und der Dichte des Säugetiermuskels (1,06 mg/mm^3) dividiert wurde. […]
# [5] = test system: murinem Muskelgewebe; assay: Endogenous respiration (Oxygraph 2K): oxygen consumption of murine muscle tissue ex vivo; type: cell-based, murin; conditions: Abbildung 2
# Protocol: as §1
# [6] = test system: humanen Skelettmuskel-Explantaten; assay: Endogenous respiration (Oxygraph 2K): oxygen consumption of human skeletal muscle explants; type: cell-based; conditions: treated 15 min before measurement
# Protocol: as §1
# [7] = test system: Mäusen; assay: Muscle mass in mice after treatment (muscle analysis/sarcopenia); type: in vivo, Mäuse; conditions: Abbildung 6; for Muskelmasse: mice, 1 mg/kg intraperitoneal once daily for four weeks
# Excerpt: as §2
smiles,measurement,setting,value
"N#Cc1c(N)nc(SCC(N)=O)c(C#N)c1-c1ccc(OCC2CC2)cc1 [BAY 60-6583, 2-({6-Amino-3,5-dicyano-4-[4-(cyclopropylmethoxy)-phenyl]pyridin-2-yl}sulfanyl)-acetamid]",Menge an Satellitenzellen,"[1]; Abbildung 9, 1 mg/kg",erhöht
same,Menge an Satellitenzellen,"[1]; Abbildung 9, listed as Bay 60-6583, 1 mg/kg",signifikant erhöht
same,Aufnahme von Glukose,[2],signifikant erhöht
same,Aufnahme von Glukose,[2]; listed as Bay 60-6583,signifikant gesteigert
same,Sauerstoffverbrauch in Bezug auf das veratmete Protein,[3]; Abbildung 4,signifikant erhöht
same,Sauerstoffverbrauch in Bezug auf das veratmete Protein,"[3]; Abbildung 4, listed as Bay 60-6583",signifikant gesteigert
same,Muskelkraft,[4],signifikant erhöht
same,Muskelkraft,[4]; listed as Bay 60-6583,signifikant gesteigert
same,"Muskelkraft, treated aged mice compared with young controls",[4]; treated aged mice vs young control animals,so viel Kraft wie junge Kontrolltiere
same,Sauerstoffverbrauch,[5],signifikant erhöht
same,Sauerstoffverbrauch in Bezug auf die Gewebemasse,[6]; Abbildung 1,signifikant erhöht
same,Sauerstoffverbrauch in Bezug auf die Gewebemasse,"[6]; Abbildung 1, listed as Bay 60-6583",signifikant gesteigert
same,Muskelmasse,[7]; 1 mg/kg,dem alterungsbedingten Verlust von Muskelmasse entgegenwirkt
same,Muskelmasse,"[7]; listed as Bay 60-6583, 1 mg/kg",signifikant gesteigert
same,"Muskelmasse, treated aged mice compared with young controls",[7]; treated aged (20 months) mice vs young (2 months) control animals,vergleichbare Muskelmasse wie junge (2 Monate alte) Kontrolltiere
